# How the values were obtained:
# [1] = Inhibition of gp120 binding to CEM cells in vitro.; format: functional, cell-based; details: ccrf-cem
# [2] = Inhibition of HIV gp120 binding to CD4 receptor using ELISA assay; set-up: species or system Human immunodeficiency virus 1
# CCRF-CEM [3] = assay: Compound was evaluated for the cytotoxicity against CEM cells; format: functional; details: Homo sapiens, read-out: CD50 (the source's name)
# CCRF-CEM [4] = assay: Compound was evaluated for the inhibition of gp120 binding to monoclonal antibodies in CEM cells; Flat dose response; format: functional, cell-based, Homo sapiens
SMILES,IC50 [1] [µM],IC50 [2] [µM],CC50 (CCRF-CEM [3]) [µM],IC50 (CCRF-CEM [4])
O=S(=O)(O)c1ccc2c(C(=CC3CCCCCCCCC3)c3cccc4cc(S(=O)(=O)O)ccc34)cccc2c1,150,> 400,,
CCCCCCCC1(C)CCc2c(C)c(OCCC=C(c3cccc4cc(S(=O)(=O)O)ccc34)c3cccc4cc(S(=O)(=O)O)ccc34)c(C)c(C)c2O1 (centres undefined),23,41,,
O=S(=O)(O)c1ccc2c(C(=CCCc3ccc4ccccc4c3)c3cccc4cc(S(=O)(=O)O)ccc34)cccc2c1,> 170,> 350,,
CCCCC/C=C/C/C=C/CCCCCCC=C(c1cccc2cc(S(=O)(=O)O)ccc12)c1cccc2cc(S(=O)(=O)O)ccc12,,56,,
C[C@]12CCC(C=C(c3cccc4cc(S(=O)(=O)O)ccc34)c3cccc4cc(S(=O)(=O)O)ccc34)CC1CC[C@@H]1[C@@H]2CC[C@]2(C)C(=O)CC[C@@H]12 (some centres undefined),35,107,,
C[C@@]12CCC[C@H]1[C@@H]1CCC3CC(C=C(c4cccc5cc(S(=O)(=O)O)ccc45)c4cccc5cc(S(=O)(=O)O)ccc45)CC[C@]3(C)[C@H]1CC2 (some centres undefined),17,26,,
CC(C)CCCC(C)[C@H]1CC[C@H]2[C@@H]3CCC4CC(CCC=C(c5cccc6ccc(S(=O)(=O)O)cc56)c5cccc6ccc(S(=O)(=O)O)cc56)CC[C@]4(C)[C@H]3CC[C@]12C (some centres undefined),7,10,120,
CC(C)CCCC(C)[C@H]1CC[C@H]2[C@@H]3CCC4C[C@@H](CCC=C(c5cc(Cl)c(O)c(C(=O)O)c5)c5cc(Cl)c(O)c(C(=O)O)c5)CC[C@]4(C)[C@H]3CC[C@]12C (some centres undefined),5,18,,
CC(C)CCCC(C)[C@H]1CC[C@H]2[C@@H]3CCC4CC(OCCC=C(c5cccc6cc(S(=O)(=O)O)ccc56)c5cccc6cc(S(=O)(=O)O)ccc56)CC[C@]4(C)[C@H]3CC[C@]12C (some centres undefined),6,31,,
CC(C)CCCC(C)[C@H]1CC[C@H]2[C@@H]3CCC4CC(C=C(c5cccc6ccc(S(=O)(=O)O)cc56)c5cccc6ccc(S(=O)(=O)O)cc56)CC[C@]4(C)[C@H]3CC[C@]12C (some centres undefined),25,10,125,
CC(C)CCCC(C)[C@H]1CC[C@H]2[C@@H]3CC[C@@H]4CC(C=C(c5cccc6cc(S(=O)(=O)O)ccc56)c5cccc6cc(S(=O)(=O)O)ccc56)CC[C@]4(C)[C@H]3CC[C@]12C (some centres undefined),13,26,,
C[C@]12CC[C@H]3[C@@H](CCC4CC(C=C(c5cccc6cc(S(=O)(=O)O)ccc56)c5cccc6cc(S(=O)(=O)O)ccc56)CC[C@@]43C)[C@@H]1CC[C@@H]2O (some centres undefined),24,83,,
CC(C)CCCC(C)[C@H]1CC[C@H]2[C@@H]3CCC4CC(C=C(c5ccc(S(=O)(=O)O)cc5)c5ccc(S(=O)(=O)O)cc5)CC[C@]4(C)[C@H]3CC[C@]12C (some centres undefined),39,10,56,
CC(C)CCCC(C)[C@H]1CC[C@H]2[C@@H]3CCC4CC(C=C(c5cccc(S(=O)(=O)O)c5)c5cccc(S(=O)(=O)O)c5)CC[C@]4(C)[C@H]3CC[C@]12C (some centres undefined),,62,,Flat dose response
CC(C)CCCC(C)[C@H]1CC[C@H]2[C@@H]3CCC4CC(C=C(c5cccc6cc(S(=O)(=O)O)ccc56)c5cccc6cc(S(=O)(=O)O)ccc56)CC[C@]4(C)[C@H]3CC[C@]12C (some centres undefined),6,16,,
C=CCO[C@H]1CC[C@H]2[C@@H]3CCC4CC(C=C(c5cccc6cc(S(=O)(=O)O)ccc56)c5cccc6cc(S(=O)(=O)O)ccc56)CC[C@]4(C)[C@H]3CC[C@]12C (some centres undefined),12,33,100,
CC(C)CCCC(C)[C@H]1CC[C@H]2[C@@H]3CCC4CC(CCC=C(c5ccc(S(=O)(=O)O)cc5)c5ccc(S(=O)(=O)O)cc5)CC[C@]4(C)[C@H]3CC[C@]12C (some centres undefined),47,13,135,
CCCCCCCCCCCCCCCCC=C(c1cccc2cc(S(=O)(=O)O)ccc12)c1cccc2cc(S(=O)(=O)O)ccc12,,192,,
O=S(=O)(O)c1ccc2c(C(=CC3CCCCCCCCCCCCCC3)c3cccc4cc(S(=O)(=O)O)ccc34)cccc2c1,52,130,,
O=S(=O)(O)c1ccc2c(C(=CCCc3ccc4c(c3)CCc3ccccc3-4)c3cccc4cc(S(=O)(=O)O)ccc34)cccc2c1,49,292,,
CCCCCCCCCCCCCCCCC1(C)CCc2c(C)c(OCCC=C(c3cccc4cc(S(=O)(=O)O)ccc34)c3cccc4cc(S(=O)(=O)O)ccc34)c(C)c(C)c2O1 (centres undefined),5,25,,
CC(C)CCCC(C)[C@H]1CC[C@H]2[C@@H]3CCC4CC(CCC=C(c5cccc6cc(S(=O)(=O)O)ccc56)c5cccc6cc(S(=O)(=O)O)ccc56)CC[C@]4(C)[C@H]3CC[C@]12C (stereo in doubt),9,18,,
CC(C)CCCC(C)[C@H]1CC[C@H]2[C@@H]3CCC4CC(CCC=C(c5cccc6cc(S(=O)(=O)O)ccc56)c5cccc6cc(S(=O)(=O)O)ccc56)CC[C@]4(C)[C@H]3CC[C@]12C (stereo in doubt; 1401),7,9,,
